Results reported in patent US7910751B2, “Heterocyclidene acetamide derivative” (Mochida Pharmaceutical Co., Ltd., priority 2005, dated 2011).

target: T1, human TRPV1 (Homo sapiens, UniProt Q8NER1); assay: Measurement of capsaicin-induced Ca influx in human TRPV1 transformed CHO cell line using FDSS-6000; type: cell-based; conditions: concentration at which the capsaicin concentration-reaction curve is shifted two times to the right, human TRPV1 transformed CHO cells
T1 construct: expressed in transfected cells; host or cells: CHO-K1
Text: [Measurement of Capsaicin-Induced Ca Influx in Human TRPV1 Transformed CHO Cell Line]
(1) Establishment of Human TRPV1 Transformed CHO Cell Line
Human vanilloid receptor 1 (hTRPV1) cDNA was cloned from a human brain. The cloned hTRPV1 cDNA was incorporated in a pCAGGS vector. The gene of the vector was introduced to a CHO-K1 cell line, thus performing transformation. Clones obtained by limiting dilution were stimulated with capsaicin. Clones with a high responsiveness were selected using an increase in the Ca concentration as an indicator. The selected clones were used for the following experiment.
(2) Measurement of Ca Influx Using FDSS-6000
The human TRPV1 transformed CHO cells were seeded in a 96-well plate (with black walls and transparent bottoms, manufactured by Greiner) at a density of 40,000 cells per well. The cells were cultured at 37° C. in 5% CO2 for one night. A loading solution of FLIPR Calcium 3 assay kit (manufactured by Molecular Devices Corporation) containing 2.5 mmol/L of probenecid was then added to each of the wells in the same amount as the culture medium, and the cells were cultured at 37° C. for 60 minutes. After the cells were stimulated with capsaicin (1 nmol/L to 1 μmol/L), the change in the Ca concentration in the cells was measured using FDSS-6000 (λex: 480 nm, λem: 540 nm, manufactured by Hamamatsu Photonics K.K.) for three minutes. The integrated values of the increase rate of the Ca concentration in the cells were calculated for a group treated with the compounds of the present invention and a group treated with a medium, thus allowing capsaicin concentration-reaction curves to be obtained. A concentration (A2 value) of each of the compounds of the present invention, at which the capsaicin concentration-reaction curve obtained when the cells were treated with the medium was shifted two times to the right side, was calculated. The inhibiting effects of the test compounds were compared using this value as an indicator.
In the case where a compound of the present invention is an agonist, when the cells are treated with the compound of the present invention prior to the capsaicin stimulation, the Ca influx is observed. In Table 1, compounds of the present invention having an A2 value of less than 100 nM are represented by A, and compounds having an A2 value of 100 nM or more are represented by B. When the A2 values of the compounds of the present invention were measured by the above-described method, the compounds have an intensity of 1 μM or less.

T1 sequence (Q8NER1 whole entry): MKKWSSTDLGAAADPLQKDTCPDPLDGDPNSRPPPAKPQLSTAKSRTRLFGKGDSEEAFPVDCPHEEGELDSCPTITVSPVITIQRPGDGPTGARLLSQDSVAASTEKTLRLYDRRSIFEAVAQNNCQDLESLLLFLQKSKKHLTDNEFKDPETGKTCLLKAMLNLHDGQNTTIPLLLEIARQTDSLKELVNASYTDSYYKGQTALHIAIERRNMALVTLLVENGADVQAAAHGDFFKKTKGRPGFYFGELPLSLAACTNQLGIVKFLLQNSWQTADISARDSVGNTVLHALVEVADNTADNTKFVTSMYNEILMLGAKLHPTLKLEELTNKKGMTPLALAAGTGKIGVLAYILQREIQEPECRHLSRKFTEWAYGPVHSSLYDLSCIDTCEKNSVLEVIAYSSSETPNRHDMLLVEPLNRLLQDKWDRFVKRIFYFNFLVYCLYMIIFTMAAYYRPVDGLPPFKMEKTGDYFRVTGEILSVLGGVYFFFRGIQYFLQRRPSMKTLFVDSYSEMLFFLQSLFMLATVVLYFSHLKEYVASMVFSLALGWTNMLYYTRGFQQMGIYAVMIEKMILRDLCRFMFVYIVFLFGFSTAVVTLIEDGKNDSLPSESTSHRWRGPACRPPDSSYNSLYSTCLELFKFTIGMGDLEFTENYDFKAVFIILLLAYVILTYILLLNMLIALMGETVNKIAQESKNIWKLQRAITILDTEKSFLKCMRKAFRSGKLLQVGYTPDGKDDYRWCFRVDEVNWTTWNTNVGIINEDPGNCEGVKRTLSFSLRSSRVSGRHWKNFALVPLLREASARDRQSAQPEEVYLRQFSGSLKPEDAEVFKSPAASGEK

| Compound | A2 VALUE |
| --- | --- |
| O=C(/C=C1\CCCOc2cc(C(F)(F)F)ccc21)Nc1ccc(Oc2ccccc2)nc1 [Example 22, (E)-2-(8-trifluoromethyl-3,4-dihydrobenzo[b]oxepin-5(2H)-ylidene)-N-(6-phenoxypyridin-3-yl)acetamide] | B (compounds having an A2 value of 100 nM or more are represented by B) |
| O=C(/C=C1\CCCOc2cc(C(F)(F)F)ccc21)Nc1ccc2c(c1)C(=O)CCC2 [Example 23, (E)-2-(8-trifluoromethyl-3,4-dihydrobenzo[b]oxepin-5(2H)-ylidene)-N-(1,2,3,4-tetrahydro-1-oxonaphthalen-7-yl)acetamide] | A (compounds of the present invention having an A2 value of less than 100 nM are represented by A) |
| O=C(/C=C1\CCCOc2cc(C(F)(F)F)ccc21)Nc1ccc2c(c1)C(=O)OC2 [Example 24, (E)-2-(8-trifluoromethyl-3,4-dihydrobenzo[b]oxepin-5(2H)-ylidene)-N-(1,3-dihydro-1-oxoisobenzofuran-6-yl)acetamide] | A (compounds of the present invention having an A2 value of less than 100 nM are represented by A) |
| O=C(/C=C1\CCCOc2cc(C(F)(F)F)ccc21)Nc1ccc(C(=O)N2CCOCC2)cc1 [Example 25, (E)-2-(8-trifluoromethyl-3,4-dihydrobenzo[b]oxepin-5(2H)-ylidene)-N-(4-(4-morpholinylcarbonyl)phenyl)acetamide] | B (compounds having an A2 value of 100 nM or more are represented by B) |
| O=C(/C=C1\CCCOc2cc(C(F)(F)F)ccc21)Nc1ccc(S(=O)(=O)N2CCOCC2)cc1 [Example 26, (E)-2-(8-trifluoromethyl-3,4-dihydrobenzo[b]oxepin-5(2H)-ylidene)-N-(4-(4-morpholinylsulfonyl)phenyl)acetamide] | B (compounds having an A2 value of 100 nM or more are represented by B) |
| O=C(/C=C1\CCCOc2cc(C(F)(F)F)ccc21)Nc1ccc(Oc2ccc(C(F)(F)F)cn2)cc1 [Example 27] | B (compounds having an A2 value of 100 nM or more are represented by B) |
| O=C(/C=C1\CCCOc2cc(C(F)(F)F)ccc21)Nc1cccc(-c2cnc3ccccc3n2)c1 [Example 28, (E)-2-(8-trifluoromethyl-3,4-dihydrobenzo[b]oxepin-5(2H)-ylidene)-N-(3-(quinoxalin-2-yl)phenyl)acetamide] | B (compounds having an A2 value of 100 nM or more are represented by B) |
| O=C(/C=C1\CCCOc2cc(C(F)(F)F)ccc21)Nc1ccc(Cc2ccncc2)cc1 [Example 29, (E)-2-(8-trifluoromethyl-3,4-dihydrobenzo[b]oxepin-5(2H)-ylidene)-N-(4-((pyridin-4-yl)methyl)phenyl)acetamide] | B (compounds having an A2 value of 100 nM or more are represented by B) |
| CC(NC(=O)/C=C1\CCCOc2cc(C(F)(F)F)ccc21)c1ccccn1 (stereo not drawn) [Example 30, (E)-2-(8-trifluoromethyl-3,4-dihydrobenzo[b]oxepin-5(2H)-ylidene)-N-(1-(pyridin-2-yl)ethyl)acetamide] | B (compounds having an A2 value of 100 nM or more are represented by B) |
| O=C(/C=C1\CCCOc2cc(C(F)(F)F)ccc21)NC(c1ccccc1)c1ccccn1 (stereo not drawn) [Example 31, (E)-2-(8-trifluoromethyl-3,4-dihydrobenzo[b]oxepin-5(2H)-ylidene)-N-(phenyl(pyridin-2-yl)methyl)acetamide] | B (compounds having an A2 value of 100 nM or more are represented by B) |
| O=C(/C=C1\CCCOc2cc(C(F)(F)F)ccc21)NCc1ccc2c(c1)OCCO2 [Example 32, (E)-2-(8-trifluoromethyl-3,4-dihydrobenzo[b]oxepin-5(2H)-ylidene)-N-((2,3-dihydrobenzo[b][1,4]dioxin-6-yl)methyl)acetamide] | B (compounds having an A2 value of 100 nM or more are represented by B) |
| CC(NC(=O)/C=C1\CCCOc2cc(C(F)(F)F)ccc21)c1ccc2c(c1)OCCO2 (stereo not drawn) [Example 33, (E)-2-(8-trifluoromethyl-3,4-dihydrobenzo[b]oxepin-5(2H)-ylidene)-N-(1-(2,3-dihydrobenzo[b][1,4]dioxin-6-yl)ethyl)acetamide] | B (compounds having an A2 value of 100 nM or more are represented by B) |
| O=C(/C=C1\CCCOc2cc(C(F)(F)F)ccc21)NCC1COc2ccccc2O1 (stereo not drawn) [Example 34, (E)-2-(8-trifluoromethyl-3,4-dihydrobenzo[b]oxepin-5(2H)-ylidene)-N-((2,3-dihydrobenzo[b][1,4]dioxin-2-yl)methyl)acetamide] | B (compounds having an A2 value of 100 nM or more are represented by B) |
| O=C(/C=C1\CCCOc2cc(C(F)(F)F)ccc21)NCc1ccc2c(c1)CCO2 [Example 35, (E)-2-(8-trifluoromethyl-3,4-dihydrobenzo[b]oxepin-5(2H)-ylidene)-N-((2,3-dihydrobenzofuran-5-yl)methyl)acetamide] | B (compounds having an A2 value of 100 nM or more are represented by B) |
| O=C(/C=C1\CCCOc2cc(C(F)(F)F)ccc21)NCc1ccccc1N1CCOCC1 [Example 36, (E)-2-(8-trifluoromethyl-3,4-dihydrobenzo[b]oxepin-5(2H)-ylidene)-N-(2-morpholinophenyl)methyl-acetamide] | B (compounds having an A2 value of 100 nM or more are represented by B) |
| O=C(/C=C1\CCCOc2cc(C(F)(F)F)ccc21)NCc1ccc(-c2csnn2)cc1 [Example 37, (E)-2-(8-trifluoromethyl-3,4-dihydrobenzo[b]oxepin-5(2H)-ylidene)-N-(4-(1,2,3-thiadiazolo-4-yl)phenylmethyl)acetamide] | B (compounds having an A2 value of 100 nM or more are represented by B) |
| O=C(/C=C1\CCCOc2cc(C(F)(F)F)ccc21)NCc1ccc(-n2cccn2)cc1 [Example 38, (E)-N-(4-(1H-pyrazolo-1-yl)phenylmethyl)-2-(8-trifluoromethyl-3,4-dihydrobenzo[b]oxepin-5(2H)-ylidene)acetamide] | B (compounds having an A2 value of 100 nM or more are represented by B) |
| Cc1nc(-c2ccc(Cl)cc2)sc1CNC(=O)/C=C1\CCCOc2cc(C(F)(F)F)ccc21 [Example 39, (E)-N-((2-(4-chlorophenyl)-4-methylthiazol-5-yl)methyl)-2-(8-trifluoromethyl-3,4-dihydrobenzo[b]oxepin-5(2H)-ylidene)acetamide] | B (compounds having an A2 value of 100 nM or more are represented by B) |
| O=C(/C=C1\CCCOc2cc(C(F)(F)F)ccc21)NCc1nnc2ccccn12 [Example 40] | B (compounds having an A2 value of 100 nM or more are represented by B) |
| Cn1nc(NC(=O)/C=C2\CCCOc3cc(C(F)(F)F)ccc32)c2cccnc21 [Example 41, (E)-2-(8-trifluoromethyl-3,4-dihydrobenzo[b]oxepin-5(2H)-ylidene)-N-(1-methyl-1H-pyrazolo[3,4-b]pyridin-3-yl)acetamide] | B (compounds having an A2 value of 100 nM or more are represented by B) |
| O=C(/C=C1\CCCOc2cc(C(F)(F)F)ccc21)Nc1n[nH]c2ccccc12 [Example 42, (E)-2-(8-trifluoromethyl-3,4-dihydrobenzo[b]oxepin-5(2H)-ylidene)-N-(1H-indazol-3-yl)acetamide] | B (compounds having an A2 value of 100 nM or more are represented by B) |
